Results from US20090074795A1, “Methods for addressing ocular diseases through interference with the wnt signaling pathway” (priority 2007, published 2009).

Tests used:
primary RCEC = test: HIF-1 activation and VEGF expression induced by LiCl in primary RCEC; format: cell-based, bovine; settings: 50 mM LiCl, 24 hours
Method: Blockade of the wnt pathway by DKK1 down-regulates VEGF and HIF-1 expression and reduces vascular leakage in the retina of diabetic rats. To activate the wnt pathway, primary RCEC were treated with 50 mM LiCl, a specific activator of the wnt pathway, in the presence or absence of 85 ng/ml DKK1, a specific inhibitor of the wnt pathway, or BSA for 24 hours. Hypoxia was used as a positive control for HIF-1 activation. The HIF-1 nuclear translocation, a key step in its activation, was measured by immunocytochemistry. Both LiCl and hypoxia increased nuclear levels of HIF-1α, indicating an increased nuclear translocation.
According to embodiments of experimental data, RCEC were exposed to normoxia (FIG. 17A), hypoxia (1% O2) (FIG. 17B), 50 mM LiCl with BSA (FIG. 17C), or 50 mM LiCl plus 85 ng/ml DKK1 (FIG. 17D) for 24 hours. The nuclear translocation of HIF-1α was determined by immunocytochemistry with an antibody against HIF-1α. […] In FIG. 17E, the total levels of VEGF and HIF-1α were determined by western blot analysis with an antibody against HIF-1α or VEGF.

[1] = system: bovine retinal capillary endothelial cells (BRCEC); test: β-catenin activation by high glucose in BRCEC; format: cell-based; settings: 30 mM glucose with 10 μM aminoguanidine, 24 h
Method: To elucidate the mechanism for of the wnt pathway activation induced by high glucose, primary bovine retinal capillary endothelial cells (BRCEC) were treated with low glucose (5 mM glucose and 20 mM mannitol), high glucose (30 mM glucose), and high glucose together with a known anti-oxidant (30 mM glucose with 10 μM aminoguanidine) for 24 h. The nuclear levels of β-catenin were examined by immunocytochemistry using the antibody for β-catenin. […] The nuclear translocation of β-catenin induced by high glucose was blocked by aminoguanidine.
According to embodiments of experimental data, cultured BRCEC were exposed to 5 mM glucose plus 20 mM mannitol as control (FIG. 12A), 30 mM glucose (FIG. 12B), and 30 mM glucose plus 10 μM aminoguanidine (AG) (FIG. 12C) for 24 hours. […] In FIG. 12D, protein levels of β-catenin were determined using western blot analysis, and normalized by β-actin levels. Each lane of FIG. 12D represents an individual culture dish.

[Cl-].[Li+] [LiCl, reference compound]
nuclear levels of HIF-1α (primary RCEC; immunocytochemistry): increased | expression of HIF-1α (primary RCEC; western blot): up-regulated | expression of VEGF (primary RCEC; western blot): up-regulated

N=C(N)NN [aminoguanidine]
nuclear translocation of β-catenin induced by high glucose ([1]; immunocytochemistry): blocked | total levels of β-catenin increased by high glucose ([1]; western blot): blocked
